Measurements as given in ChEMBL document CHEMBL6109146, “Discovery of New Pyrazolone Carbothioamide Derivatives as Potent Antifungal Agents for the Treatment of Candidiasis and Cryptococcosis” (J Med Chem, 2025).
The source made the active and inactive calls. The calls are words filed in the database; no cut-off is given here.

System: [Candida] auris
Assay: Antifungal activity against Candida auris 15448 assessed as inhibition of fungal growth incubated for 48 to 72 hrs by microplate reader analysis
Assay type: functional, organism-based
Settings: Candidozyma auris, time 48-72 hrs

SMILES	Activity
Nc1cc(=O)n(C(=S)Nc2ccc(OC3CCCCC3)cc2)[nH]1	Active
CCCCCCc1ccc(NC(=S)N2N=C(N)CCC2=O)cc1	inactive
Nc1cc(=O)n(C(=S)Nc2cccnc2)[nH]1	inactive
S=C(Nc1ccc(C2CCCCC2)cc1)Nc1cc[nH]n1	inactive
CC(=O)c1ccc(NC(=S)n2[nH]c(N)cc2=O)cc1	Not active; Compound Demonstrated Reduced Activity Compared To Lead Compound 1
CC(=O)c1ccc(NC(=O)n2[nH]c(N)cc2=O)cc1	inactive
CCc1ccc(NC(=O)n2[nH]c(N)cc2=O)cc1	inactive

System: [Candida] auris
Assay: Antifungal activity against Candida auris 0029 assessed as inhibition of fungal growth incubated for 48 to 72 hrs by microplate reader analysis
Assay type: functional, organism-based
Settings: Candidozyma auris, time 48-72 hrs

SMILES	Activity
Nc1cc(=O)n(C(=S)Nc2ccc(OC3CCCCC3)cc2)[nH]1	Active
CCCCCCc1ccc(NC(=S)N2N=C(N)CCC2=O)cc1	inactive
Nc1cc(=O)n(C(=S)Nc2cccnc2)[nH]1	inactive
S=C(Nc1ccc(C2CCCCC2)cc1)Nc1cc[nH]n1	inactive
CC(=O)c1ccc(NC(=S)n2[nH]c(N)cc2=O)cc1	Not active; Compound Demonstrated Reduced Activity Compared To Lead Compound 1
CC(=O)c1ccc(NC(=O)n2[nH]c(N)cc2=O)cc1	inactive
CCc1ccc(NC(=O)n2[nH]c(N)cc2=O)cc1	inactive

System: Cryptococcus neoformans
Assay: Antifungal activity against Cryptococcus neoformans HN-68 assessed as inhibition of fungal growth incubated for 48 to 72 hrs by microplate reader analysis
Assay type: functional
Settings: time 48-72 hrs

SMILES	Activity
Nc1cc(=O)n(C(=S)Nc2ccc(OC3CCCCC3)cc2)[nH]1	Active
CCCCCCc1ccc(NC(=S)N2N=C(N)CCC2=O)cc1	inactive
Nc1cc(=O)n(C(=S)Nc2cccnc2)[nH]1	Not active; Decrease In Activity Observed
S=C(Nc1ccc(C2CCCCC2)cc1)Nc1cc[nH]n1	inactive
CC(=O)c1ccc(NC(=S)n2[nH]c(N)cc2=O)cc1	Not active; Compound Demonstrated Reduced Activity Compared To Lead Compound 1
CC(=O)c1ccc(NC(=O)n2[nH]c(N)cc2=O)cc1	inactive
CCc1ccc(NC(=O)n2[nH]c(N)cc2=O)cc1	inactive

System: Cryptococcus gattii
Assay: Antifungal activity against Cryptococcus gattii 01063P assessed as inhibition of fungal growth incubated for 48 to 72 hrs by microplate reader analysis
Assay type: functional
Settings: time 48-72 hrs

SMILES	Activity
Nc1cc(=O)n(C(=S)Nc2ccc(OC3CCCCC3)cc2)[nH]1	Active
CCCCCCc1ccc(NC(=S)N2N=C(N)CCC2=O)cc1	inactive
Nc1cc(=O)n(C(=S)Nc2cccnc2)[nH]1	Not active; Decrease In Activity Observed
S=C(Nc1ccc(C2CCCCC2)cc1)Nc1cc[nH]n1	inactive
CC(=O)c1ccc(NC(=S)n2[nH]c(N)cc2=O)cc1	Not active; Compound Demonstrated Reduced Activity Compared To Lead Compound 1
CC(=O)c1ccc(NC(=O)n2[nH]c(N)cc2=O)cc1	inactive
CCc1ccc(NC(=O)n2[nH]c(N)cc2=O)cc1	inactive

System: Candida albicans
Assay: Antifungal activity against Candida albicans SC5314 assessed as inhibition of fungal growth incubated for 48 to 72 hrs by microplate reader analysis
Assay type: functional, organism-based
Settings: time 48-72 hrs

SMILES	Activity
Nc1cc(=O)n(C(=S)Nc2ccc(OC3CCCCC3)cc2)[nH]1	Active
CCCCCCc1ccc(NC(=S)N2N=C(N)CCC2=O)cc1	inactive
Nc1cc(=O)n(C(=S)Nc2cccnc2)[nH]1	inactive
S=C(Nc1ccc(C2CCCCC2)cc1)Nc1cc[nH]n1	inactive
CC(=O)c1ccc(NC(=S)n2[nH]c(N)cc2=O)cc1	Not active; Compound Demonstrated Reduced Activity Compared To Lead Compound 1
CC(=O)c1ccc(NC(=O)n2[nH]c(N)cc2=O)cc1	inactive
CCc1ccc(NC(=O)n2[nH]c(N)cc2=O)cc1	inactive

System: [Candida] auris
Assay: Antifungal activity against Candida auris 0030 assessed as inhibition of fungal growth incubated for 48 to 72 hrs by microplate reader analysis
Assay type: functional, organism-based
Settings: Candidozyma auris, time 48-72 hrs

SMILES	Activity
Nc1cc(=O)n(C(=S)Nc2ccc(OC3CCCCC3)cc2)[nH]1	Active
CCCCCCc1ccc(NC(=S)N2N=C(N)CCC2=O)cc1	inactive
Nc1cc(=O)n(C(=S)Nc2cccnc2)[nH]1	inactive
S=C(Nc1ccc(C2CCCCC2)cc1)Nc1cc[nH]n1	inactive
CC(=O)c1ccc(NC(=S)n2[nH]c(N)cc2=O)cc1	Not active; Compound Demonstrated Reduced Activity Compared To Lead Compound 1
CC(=O)c1ccc(NC(=O)n2[nH]c(N)cc2=O)cc1	inactive
CCc1ccc(NC(=O)n2[nH]c(N)cc2=O)cc1	inactive

System: Nakaseomyces glabratus
Assay: Antifungal activity against Candida glabrata 0161 assessed as inhibition of fungal growth incubated for 48 to 72 hrs by microplate reader analysis
Assay type: functional
Settings: time 48-72 hrs

SMILES	Activity
Nc1cc(=O)n(C(=S)Nc2ccc(OC3CCCCC3)cc2)[nH]1	Active
CCCCCCc1ccc(NC(=S)N2N=C(N)CCC2=O)cc1	inactive
Nc1cc(=O)n(C(=S)Nc2cccnc2)[nH]1	Not active; Decrease In Activity Observed
S=C(Nc1ccc(C2CCCCC2)cc1)Nc1cc[nH]n1	inactive
CC(=O)c1ccc(NC(=S)n2[nH]c(N)cc2=O)cc1	Active
CC(=O)c1ccc(NC(=O)n2[nH]c(N)cc2=O)cc1	inactive
CCc1ccc(NC(=O)n2[nH]c(N)cc2=O)cc1	inactive

System: Cryptococcus neoformans
Assay: Antifungal activity against Cryptococcus neoformans H99 assessed as inhibition of fungal growth incubated for 48 to 72 hrs by microplate reader analysis
Assay type: functional
Settings: time 48-72 hrs

SMILES	Activity
Nc1cc(=O)n(C(=S)Nc2ccc(OC3CCCCC3)cc2)[nH]1	Active
CCCCCCc1ccc(NC(=S)N2N=C(N)CCC2=O)cc1	inactive
Nc1cc(=O)n(C(=S)Nc2cccnc2)[nH]1	Not active; Decrease In Activity Observed
S=C(Nc1ccc(C2CCCCC2)cc1)Nc1cc[nH]n1	inactive
CC(=O)c1ccc(NC(=S)n2[nH]c(N)cc2=O)cc1	Not active; Compound Demonstrated Reduced Activity Compared To Lead Compound 1
CC(=O)c1ccc(NC(=O)n2[nH]c(N)cc2=O)cc1	inactive
CCc1ccc(NC(=O)n2[nH]c(N)cc2=O)cc1	inactive

System: Cryptococcus neoformans
Assay: Antifungal activity against Cryptococcus neoformans 011409 assessed as inhibition of fungal growth incubated for 48 to 72 hrs by microplate reader analysis
Assay type: functional
Settings: time 48-72 hrs

SMILES	Activity
Nc1cc(=O)n(C(=S)Nc2ccc(OC3CCCCC3)cc2)[nH]1	Active
CCCCCCc1ccc(NC(=S)N2N=C(N)CCC2=O)cc1	inactive
Nc1cc(=O)n(C(=S)Nc2cccnc2)[nH]1	Not active; Decrease In Activity Observed
S=C(Nc1ccc(C2CCCCC2)cc1)Nc1cc[nH]n1	inactive
CC(=O)c1ccc(NC(=S)n2[nH]c(N)cc2=O)cc1	Not active; Compound Demonstrated Reduced Activity Compared To Lead Compound 1
CC(=O)c1ccc(NC(=O)n2[nH]c(N)cc2=O)cc1	inactive
CCc1ccc(NC(=O)n2[nH]c(N)cc2=O)cc1	inactive

System: Nakaseomyces glabratus
Assay: Antifungal activity against Candida glabrata 9256 assessed as inhibition of fungal growth incubated for 48 to 72 hrs by microplate reader analysis
Assay type: functional
Settings: time 48-72 hrs

SMILES	Activity
Nc1cc(=O)n(C(=S)Nc2ccc(OC3CCCCC3)cc2)[nH]1	Active
CCCCCCc1ccc(NC(=S)N2N=C(N)CCC2=O)cc1	inactive
Nc1cc(=O)n(C(=S)Nc2cccnc2)[nH]1	Not active; Decrease In Activity Observed
S=C(Nc1ccc(C2CCCCC2)cc1)Nc1cc[nH]n1	inactive
CC(=O)c1ccc(NC(=S)n2[nH]c(N)cc2=O)cc1	Active
CC(=O)c1ccc(NC(=O)n2[nH]c(N)cc2=O)cc1	inactive
CCc1ccc(NC(=O)n2[nH]c(N)cc2=O)cc1	inactive

System: Candida albicans
Assay: Antifungal activity against Candida albicans 9296 assessed as inhibition of fungal growth incubated for 48 to 72 hrs by microplate reader analysis
Assay type: functional, organism-based
Settings: time 48-72 hrs

SMILES	Activity
Nc1cc(=O)n(C(=S)Nc2ccc(OC3CCCCC3)cc2)[nH]1	Active
CCCCCCc1ccc(NC(=S)N2N=C(N)CCC2=O)cc1	inactive
Nc1cc(=O)n(C(=S)Nc2cccnc2)[nH]1	inactive
S=C(Nc1ccc(C2CCCCC2)cc1)Nc1cc[nH]n1	inactive
CC(=O)c1ccc(NC(=S)n2[nH]c(N)cc2=O)cc1	Not active; Compound Demonstrated Reduced Activity Compared To Lead Compound 1
CC(=O)c1ccc(NC(=O)n2[nH]c(N)cc2=O)cc1	inactive
CCc1ccc(NC(=O)n2[nH]c(N)cc2=O)cc1	inactive

System: Candida albicans
Assay: Antifungal activity against Candida albicans 103 assessed as inhibition of fungal growth incubated for 48 to 72 hrs by microplate reader analysis
Assay type: functional, organism-based
Settings: time 48-72 hrs

SMILES	Activity
Nc1cc(=O)n(C(=S)Nc2ccc(OC3CCCCC3)cc2)[nH]1	Active
CCCCCCc1ccc(NC(=S)N2N=C(N)CCC2=O)cc1	inactive
Nc1cc(=O)n(C(=S)Nc2cccnc2)[nH]1	inactive
S=C(Nc1ccc(C2CCCCC2)cc1)Nc1cc[nH]n1	inactive
CC(=O)c1ccc(NC(=S)n2[nH]c(N)cc2=O)cc1	Not active; Compound Demonstrated Reduced Activity Compared To Lead Compound 1
CC(=O)c1ccc(NC(=O)n2[nH]c(N)cc2=O)cc1	inactive
CCc1ccc(NC(=O)n2[nH]c(N)cc2=O)cc1	inactive

System: Nakaseomyces glabratus
Assay: Antifungal activity against Candida glabrata 8535 assessed as inhibition of fungal growth incubated for 48 to 72 hrs by microplate reader analysis
Assay type: functional
Settings: time 48-72 hrs

SMILES	Activity
Nc1cc(=O)n(C(=S)Nc2ccc(OC3CCCCC3)cc2)[nH]1	Active
CCCCCCc1ccc(NC(=S)N2N=C(N)CCC2=O)cc1	inactive
Nc1cc(=O)n(C(=S)Nc2cccnc2)[nH]1	Not active; Decrease In Activity Observed
S=C(Nc1ccc(C2CCCCC2)cc1)Nc1cc[nH]n1	inactive
CC(=O)c1ccc(NC(=S)n2[nH]c(N)cc2=O)cc1	Active
CC(=O)c1ccc(NC(=O)n2[nH]c(N)cc2=O)cc1	inactive
CCc1ccc(NC(=O)n2[nH]c(N)cc2=O)cc1	inactive
